Literature values in US7803960B2, “Phenyloxyaniline derivatives” (Bayer Schering Pharma Aktiengesellschaft, priority 2006, dated 2010).

Key:
[1] = tested on: Peripheral benzodiazepine receptor (PBR); details: compared with [^11C]PK11195 (1)
[2] = compared with [^11C]PK11195 (1)
[3] = molecular target: T1, PBRs (Homo sapiens, UniProt P30536); details: C-11 isotope labeled version, in vivo imaging
T1 construct: host or cells: brain, in vivo
T1 sequence (P30536 whole entry): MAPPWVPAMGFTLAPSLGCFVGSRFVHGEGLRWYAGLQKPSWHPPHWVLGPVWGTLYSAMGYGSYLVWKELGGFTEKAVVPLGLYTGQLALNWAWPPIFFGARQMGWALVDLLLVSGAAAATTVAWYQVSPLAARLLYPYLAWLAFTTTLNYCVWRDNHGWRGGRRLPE

COc1ccc(O[11CH3])c(CN(C(C)=O)c2cc(F)ccc2Oc2ccccc2)c1 [Compound 2]
binding affinity to PBR [1]: higher
accumulation in the brain [2]: higher

COc1ccc(OCC[18F])c(CN(C(C)=O)c2cc(F)ccc2Oc2ccccc2)c1 [Compound 3, N-(5-Fluoro-2-phenoxyphenyl)-N-(2-(2-[^18F]fluoroethoxy)-5-methoxybenzyl)acetamide]
binding affinity to PBR [1]: higher
accumulation in the brain [2]: higher

CC[C@@H](C)N(C)C(=O)c1cc2ccccc2c(-c2ccccc2Cl)n1 [PK11195]
signal in the brain [3]: not high enough for stable quantitative analysis
